{"source": "patent US10703747B2", "about": "“Benzothiophene-based selective mixed estrogen receptor downregulators” (The Board of Trustees of the University of Illnois, priority 2016, dated 2020)", "data": [{"system": "MCF7:5C (Tamoxifen Resistant) cells", "assay": "Cell viability of MCF7:5C (tamoxifen resistant), DNA content growth inhibition", "type": "cell-based", "conditions": "144 h, Table 1, data normalized to 1 uM fulvestrant, day 6, read-out: MCF-5C growth inhibition IC50", "experimental": "(§1) Assays Cell Viability of MCF7:5C (Tamoxifen Resistant)\n(§2) The DNA content of the cells was determined as previously described using a Fluorescent DNA Quantitation kit (cat. No. 170-2480; Bio-Rad Laboratories, Hercules, Calif.). Briefly, five thousand cells were plated per well in 96-well plates, and treatment with indicated concentrations of compounds was started at the same time in each well. On day 6, the cells in the plates were lysed and frozen at −80° C. To measure the total DNA in each well, the plates were allowed to warm to room temperature, incubated with Hoechst dye, and mixed well. The fluorescence was measured using a Synergy H4 Hybrid Multi-Mode Microplate Reader. For each analysis, six replicate wells were used and at least three independent experiments were performed.\n(§3) FIG. 1 is a graph of the efficacy of Compound 1 against tamoxifen-resistant MCF-7:5 cells normalized to 1 uM fulvestrant. The y-axis is cell survival as a percent of the control and the x-axis is the concentration of the compound measured in nanomolar units.", "units": {"IC50": "nM"}, "values": [{"molecule": "Cc1cc(C)cc(C(=O)c2sc3cc(O)ccc3c2-c2ccc(/C=C/C(=O)O)cc2)c1", "note": "[Compound 11, (E)-3-(4-(2-(3,5-dimethylbenzoyl)-6-hydroxybenzo[b]thiophen-3-yl)phenyl)acrylic acid]", "IC50": "> 200"}, {"molecule": "Cc1cc(F)ccc1C(=O)c1sc2cc(O)ccc2c1-c1ccc(/C=C/C(=O)O)cc1", "note": "[Compound 9, (E)-3-(4-(2-(4-fluoro-2-methylbenzoyl)-6-hydroxybenzo[b]thiophen-3-yl)phenyl)acrylic acid]", "IC50": "> 200"}, {"molecule": "Cc1ccc(F)cc1C(=O)c1sc2cc(O)ccc2c1-c1ccc(/C=C/C(=O)O)cc1", "note": "[Compound 7, (E)-3-(4-(2-(5-fluoro-2-methylbenzoyl)-6-hydroxybenzo[b]thiophen-3-yl)phenyl)acrylic acid]", "IC50": "> 200"}, {"molecule": "Cc1cc(F)cc(C)c1C(=O)c1sc2cc(O)ccc2c1-c1ccc(/C=C/C(=O)O)cc1", "note": "[Compound 8, (E)-3-(4-(2-(4-fluoro-2,6-dimethylbenzoyl)-6-hydroxybenzo[b]thiophen-3-yl)phenyl)acrylic acid]", "IC50": "> 200"}, {"molecule": "O=C(O)/C=C/c1ccc(-c2c(C(=O)c3ccccc3Cl)sc3cc(O)ccc23)cc1", "note": "[Compound 4, (E)-3-(4-(2-(2-chlorobenzoyl)-6-hydroxybenzo[b]thiophen-3-yl)phenyl)acrylic acid]", "IC50": "> 200"}, {"molecule": "O=C(O)/C=C/c1ccc(-c2c(C(=O)c3ccc(O)cc3)sc3cc(O)ccc23)cc1", "note": "[Compound 1, (E)-3-(4-(6-hydroxy-2-(4-hydroxybenzoyl)benzo[b]thiophen-3-yl)phenyl)acrylic acid]", "IC50": "< 100"}, {"molecule": "O=C(O)/C=C/c1ccc(-c2c(C(=O)c3ccccc3F)sc3cc(O)ccc23)cc1", "note": "[Compound 3, (E)-3-(4-(2-(2-fluorobenzoyl)-6-hydroxybenzo[b]thiophen-3-yl)phenyl)acrylic acid]", "IC50": "> 200"}, {"molecule": "Cc1ccccc1C(=O)c1sc2cc(O)ccc2c1-c1ccc(/C=C/C(=O)O)cc1", "note": "[Compound 6, (E)-3-(4-(6-hydroxy-2-(2-methylbenzoyl)benzo[b]thiophen-3-yl)phenyl)acrylic acid]", "IC50": "> 200"}, {"molecule": "O=C(O)/C=C/Oc1ccc(-c2c(C(=O)c3ccc(O)cc3)sc3cc(O)ccc23)cc1", "note": "[Compound 2, (E)-3-(4-(6-hydroxy-2-(4-hydroxybenzoyl)benzo[b]thiophen-3-yl)phenoxy)acrylic acid]", "IC50": "< 10"}, {"molecule": "O=C(O)/C=C/c1ccc(-c2c(C(=O)c3ccccc3C(F)(F)F)sc3cc(O)ccc23)cc1", "note": "[Compound 5, (E)-3-(4-(6-hydroxy-2-(2-(trifluoromethyl)benzoyl)benzo[b]thiophen-3-yl)phenyl)acrylic acid]", "IC50": "> 200"}, {"molecule": "Cc1cccc(C)c1C(=O)c1sc2cc(O)ccc2c1-c1ccc(/C=C/C(=O)O)cc1", "note": "[Compound 10, (E)-3-(4-(2-(2,6-dimethylbenzoyl)-6-hydroxybenzo[b]thiophen-3-yl)phenyl)acrylic acid]", "IC50": "> 200"}]}, {"system": "MCF7:5C (Tamoxifen Resistant) cells", "assay": "Cell viability of MCF7:5C (tamoxifen resistant), DNA content growth inhibition", "type": "cell-based", "conditions": "144 h, Table 2, data normalized to 1 uM fulvestrant, day 6, read-out: MCF-5C growth inhibition IC50", "experimental": "as §1, §2, §3", "units": {"IC50": "nM"}, "values": [{"molecule": "O=C(O)/C=C/c1ccc(-c2c(C(=O)C3CCCCC3)sc3cc(O)ccc23)cc1", "note": "[Compound 12, (E)-3-(4-(2-(cyclohexanecarbonyl)-6-hydroxybenzo[b]thiophen-3-yl)phenyl)acrylic acid]", "IC50": "< 200"}, {"molecule": "Cc1cc(O)ccc1C(=O)c1sc2cc(O)ccc2c1-c1ccc(/C=C/C(=O)O)cc1", "note": "[Compound 14, (E)-3-(4-(6-hydroxy-2-(4-hydroxy-2-methylbenzoyl)benzo[b]thiophen-3-yl)phenyl)acrylic acid]", "IC50": "> 200"}, {"molecule": "Cc1cc(OC(F)(F)F)ccc1C(=O)c1sc2cc(O)ccc2c1-c1ccc(/C=C/C(=O)O)cc1", "note": "[Compound 13, (E)-3-(4-(6-hydroxy-2-(2-methyl-4-(trifluoromethoxy)benzoyl)benzo[b]thiophen-3-yl)phenyl)acrylic acid]", "IC50": "> 200"}, {"molecule": "Cc1cc(O)cc(C)c1C(=O)c1sc2cc(O)ccc2c1-c1ccc(/C=C/C(=O)O)cc1", "note": "[Compound 15, (E)-3-(4-(6-hydroxy-2-(4-hydroxy-2,6-dimethylbenzoyl)benzo[b]thiophen-3-yl)phenyl)acrylic acid]", "IC50": "> 200"}]}, {"target": "T1, estrogen receptor (Homo sapiens, UniProt P03372)", "T1 sequence (P03372 1-595)": "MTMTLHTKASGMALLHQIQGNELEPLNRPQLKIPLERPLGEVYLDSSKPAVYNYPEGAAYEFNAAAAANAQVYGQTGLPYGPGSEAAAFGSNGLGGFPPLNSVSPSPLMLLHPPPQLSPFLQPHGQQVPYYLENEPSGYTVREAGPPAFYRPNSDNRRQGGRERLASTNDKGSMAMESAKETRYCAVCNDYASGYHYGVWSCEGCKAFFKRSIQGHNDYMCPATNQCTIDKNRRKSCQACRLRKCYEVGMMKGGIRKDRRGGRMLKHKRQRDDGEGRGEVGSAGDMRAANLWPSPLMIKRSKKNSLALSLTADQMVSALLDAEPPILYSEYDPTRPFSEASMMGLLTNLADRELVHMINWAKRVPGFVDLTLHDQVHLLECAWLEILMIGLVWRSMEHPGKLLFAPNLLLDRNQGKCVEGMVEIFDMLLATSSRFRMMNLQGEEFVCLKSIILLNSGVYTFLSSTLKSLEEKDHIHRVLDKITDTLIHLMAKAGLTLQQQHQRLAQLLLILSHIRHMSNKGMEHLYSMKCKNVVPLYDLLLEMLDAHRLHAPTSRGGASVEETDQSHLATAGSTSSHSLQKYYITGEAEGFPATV", "assay": "Western blot, estrogen receptor downregulation in MCF-7:5C cells", "type": "cell-based", "parameters": "Whole-cell extracts of cultured cells were prepared in lysis buffer; endogenous in cells", "conditions": "24 hours, 1 nM to 1 uM", "experimental": "(§4) Whole-cell extracts of cultured cells were prepared in lysis buffer (200 mmol/L Tris, 1% Triton X-100, 5 mmol/L EDTA) with protease and phosphatase inhibitor cocktails (1:50, both from Sigma-Aldrich) after scraping from the culture plates. Protein concentration was measured using the Bradford method (Bio-Rad). Proteins were separated under denaturing conditions and blotted onto nitrocellulose membrane (Bio-Rad) using a wet transfer system (Bio-Rad). Images of blots were acquired on a Bio-Rad ChemiDoc System following incubation with SuperSignal West Dura luminol solution (Thermo Fisher Scientific).\n(§5) Fulvestrant at 1 uM concentration was assayed as a positive control.", "values": [{"molecule": "O=C(O)/C=C/c1ccc(-c2c(C(=O)c3ccc(O)cc3)sc3cc(O)ccc23)cc1", "note": "[Compound 1, (E)-3-(4-(6-hydroxy-2-(4-hydroxybenzoyl)benzo[b]thiophen-3-yl)phenyl)acrylic acid]", "estrogen receptor downregulation (western blot)": "estrogen receptor downregulation"}]}, {"target": "T1, estrogen receptor", "assay": "Western blot, estrogen receptor downregulation in T47D:neo cells", "type": "cell-based", "parameters": "Whole-cell extracts of cultured cells were prepared in lysis buffer; endogenous in cells; host or cells: T47D:neo", "conditions": "24 hours, 1 nM to 1 uM", "experimental": "as §4, §5", "values": [{"molecule": "O=C(O)/C=C/c1ccc(-c2c(C(=O)c3ccc(O)cc3)sc3cc(O)ccc23)cc1", "note": "[Compound 1, (E)-3-(4-(6-hydroxy-2-(4-hydroxybenzoyl)benzo[b]thiophen-3-yl)phenyl)acrylic acid]", "estrogen receptor downregulation (western blot)": "estrogen receptor downregulation"}]}]}
